Results reported in ChEMBL document CHEMBL3608278 (J Med Chem, 2015).

How the values were obtained:
[1] = biological target: T1, Potassium voltage-gated channel subfamily A member 3 (Homo sapiens, UniProt P22001); format: cell-based, CHO-K1
[2] = biological target: T1, Potassium voltage-gated channel subfamily A member 3; assay: cell-based; parameters: species or system Blood
[3] = biological target: T1, Potassium voltage-gated channel subfamily A member 3; parameters: species or system Blood

T1 sequence (P22001 whole entry): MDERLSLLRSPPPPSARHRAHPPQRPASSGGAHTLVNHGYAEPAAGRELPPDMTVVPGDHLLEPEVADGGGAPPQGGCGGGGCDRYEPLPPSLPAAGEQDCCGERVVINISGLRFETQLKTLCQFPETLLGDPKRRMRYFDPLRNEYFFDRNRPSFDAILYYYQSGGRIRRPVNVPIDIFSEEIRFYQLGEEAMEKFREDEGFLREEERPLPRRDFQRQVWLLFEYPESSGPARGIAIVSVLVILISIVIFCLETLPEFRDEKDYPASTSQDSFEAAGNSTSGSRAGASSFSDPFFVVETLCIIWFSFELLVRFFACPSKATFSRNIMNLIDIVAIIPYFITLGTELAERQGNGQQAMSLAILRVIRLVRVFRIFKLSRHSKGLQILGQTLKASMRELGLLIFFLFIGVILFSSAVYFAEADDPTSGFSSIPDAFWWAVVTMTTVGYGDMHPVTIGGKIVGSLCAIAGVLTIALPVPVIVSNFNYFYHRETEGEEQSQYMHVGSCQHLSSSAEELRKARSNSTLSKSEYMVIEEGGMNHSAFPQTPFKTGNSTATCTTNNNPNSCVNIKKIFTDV

## CC[C@H](C)[C@@H]1NC(=O)[C@@H](NC(=O)[C@H](CO)NC(=O)[C@@H](N)CCCNC(=N)N)CSSC[C@@H](C(=O)O)NC(=O)[C@H]([C@@H](C)O)NC(=O)CNC(=O)[C@@H]2CSSC[C@@H]3NC(=O)[C@H](CCC(N)=O)NC(=O)[C@H](Cc4ccccc4)NC(=O)[C@H](C)NC(=O)[C@H]([C@@H](C)O)NC(=O)[C@H](CSSC[C@H](NC(=O)[C@H](Cc4ccccc4)NC(=O)[C@H](CO)NC(=O)[C@H](CC(C)C)NC(=O)[C@H](CCCNC(=N)N)NC(=O)[C@H](CCC(=O)O)NC(=O)[C@H](CCCCN)NC(=O)[C@H](CCSC)NC(=O)[C@H](CO)NC(=O)[C@H](Cc4cnc[nH]4)NC(=O)[C@H](CCCCN)NC3=O)C(=O)N[C@@H](CCCNC(=N)N)C(=O)N[C@@H](CCCCN)C(=O)N[C@@H]([C@@H](C)O)C(=O)N2)NC(=O)[C@H](CCCNC(=N)N)NC(=O)[C@H](CO)NC(=O)[C@H](CCCCN)NC(=O)[C@@H]2CCCN2C(=O)[C@H]([C@@H](C)CC)NC(=O)[C@H]([C@@H](C)O)NC(=O)[C@H](CC(=O)O)NC1=O
[1]
  IC50: > 3.33 nM
[2]
  IC50: > 100 nM
[3]
  IC50: > 100 nM

## CC[C@H](C)[C@@H]1NC(=O)[C@@H](NC(=O)[C@H](CO)NC(=O)[C@@H](N)CCCNC(=N)N)CSSC[C@@H](C(=O)O)NC(=O)[C@H]([C@@H](C)O)NC(=O)CNC(=O)[C@@H]2CSSC[C@@H]3NC(=O)[C@H](CCC(N)=O)NC(=O)[C@H](Cc4ccccc4)NC(=O)[C@H](C)NC(=O)[C@H]([C@@H](C)O)NC(=O)[C@H](CSSC[C@H](NC(=O)[C@H](Cc4ccccc4)NC(=O)[C@H](CO)NC(=O)[C@H](CCC(=O)O)NC(=O)[C@H](CCCNC(=N)N)NC(=O)[C@H](Cc4ccc(O)cc4)NC(=O)[C@H](CCCCN)NC(=O)[C@H](CCSC)NC(=O)[C@H](CO)NC(=O)[C@H](Cc4cnc[nH]4)NC(=O)[C@H](CCCCN)NC3=O)C(=O)N[C@@H](CCCNC(=N)N)C(=O)N[C@@H](CCCCN)C(=O)N[C@@H]([C@@H](C)O)C(=O)N2)NC(=O)[C@H](CCCNC(=N)N)NC(=O)[C@H](CO)NC(=O)[C@H](CCCCN)NC(=O)[C@@H]2CCCN2C(=O)[C@H]([C@@H](C)CC)NC(=O)[C@H]([C@@H](C)O)NC(=O)[C@H](CC(=O)O)NC1=O
[1]
  IC50: 0.245 nM
[2]
  IC50: 0.494 nM
[3]
  IC50: 0.678 nM

## CC[C@H](C)[C@@H]1NC(=O)[C@@H](NC(=O)[C@H](CO)NC(=O)[C@@H](N)CCCNC(=N)N)CSSC[C@@H](C(=O)O)NC(=O)[C@H]([C@@H](C)O)NC(=O)CNC(=O)[C@@H]2CSSC[C@@H]3NC(=O)[C@H](CCC(N)=O)NC(=O)[C@H](Cc4ccccc4)NC(=O)[C@H](C)NC(=O)[C@H]([C@@H](C)O)NC(=O)[C@H](CSSC[C@H](NC(=O)[C@H](CCC(=O)O)NC(=O)[C@H](CO)NC(=O)[C@H](CC(C)C)NC(=O)[C@H](CCCNC(=N)N)NC(=O)[C@H](Cc4ccc(O)cc4)NC(=O)[C@H](CCCCN)NC(=O)[C@H](CCSC)NC(=O)[C@H](CO)NC(=O)[C@H](Cc4cnc[nH]4)NC(=O)[C@H](CCCCN)NC3=O)C(=O)N[C@@H](CCCNC(=N)N)C(=O)N[C@@H](CCCCN)C(=O)N[C@@H]([C@@H](C)O)C(=O)N2)NC(=O)[C@H](CCCNC(=N)N)NC(=O)[C@H](CO)NC(=O)[C@H](CCCCN)NC(=O)[C@@H]2CCCN2C(=O)[C@H]([C@@H](C)CC)NC(=O)[C@H]([C@@H](C)O)NC(=O)[C@H](CC(=O)O)NC1=O
[1]
  IC50: > 3.33 nM
[2]
  IC50: 8.16 nM
[3]
  IC50: 34 nM

## CC[C@H](C)[C@@H]1NC(=O)[C@@H](NC(=O)[C@H](CO)NC(=O)[C@@H](N)CCCNC(=N)N)CSSC[C@@H](C(=O)O)NC(=O)[C@H]([C@@H](C)O)NC(=O)CNC(=O)[C@@H]2CSSC[C@@H]3NC(=O)[C@H](CCC(N)=O)NC(=O)[C@H](Cc4ccccc4)NC(=O)[C@H](C)NC(=O)[C@H]([C@@H](C)O)NC(=O)[C@H](CSSC[C@H](NC(=O)[C@H](Cc4ccccc4)NC(=O)[C@H](CO)NC(=O)[C@H](CC(C)C)NC(=O)[C@H](CCCNC(=N)N)NC(=O)[C@H](Cc4ccc(O)cc4)NC(=O)[C@H](CCCCN)NC(=O)[C@H](CCSC)NC(=O)[C@H](CO)NC(=O)[C@H](Cc4cnc[nH]4)NC(=O)[C@H](CCCCN)NC3=O)C(=O)N[C@@H](CCCNC(=N)N)C(=O)N[C@@H](CCC(=O)O)C(=O)N[C@@H]([C@@H](C)O)C(=O)N2)NC(=O)[C@H](CCCNC(=N)N)NC(=O)[C@H](CO)NC(=O)[C@H](CCCCN)NC(=O)[C@@H]2CCCN2C(=O)[C@H]([C@@H](C)CC)NC(=O)[C@H]([C@@H](C)O)NC(=O)[C@H](CC(=O)O)NC1=O
[1]
  IC50: 0.278 nM
[2]
  IC50: 0.02 nM
[3]
  IC50: 0.043 nM

## CC[C@H](C)[C@@H]1NC(=O)[C@@H](NC(=O)[C@H](CO)NC(=O)[C@@H](N)CCCNC(=N)N)CSSC[C@@H](C(=O)O)NC(=O)[C@H]([C@@H](C)O)NC(=O)CNC(=O)[C@@H]2CSSC[C@@H]3NC(=O)[C@H](CCC(N)=O)NC(=O)[C@H](Cc4ccccc4)NC(=O)[C@H](C)NC(=O)[C@H]([C@@H](C)O)NC(=O)[C@H](CSSC[C@H](NC(=O)[C@H](Cc4ccccc4)NC(=O)[C@H](CO)NC(=O)[C@H](CC(C)C)NC(=O)[C@H](CCCNC(=N)N)NC(=O)[C@H](Cc4ccc(O)cc4)NC(=O)[C@H](CCCCN)NC(=O)[C@H](CCSC)NC(=O)[C@H](CO)NC(=O)[C@H](Cc4cnc[nH]4)NC(=O)[C@H](CCCCN)NC3=O)C(=O)N[C@@H](CCCNC(=N)N)C(=O)N[C@@H](CCCCN)C(=O)N[C@@H](CCC(=O)O)C(=O)N2)NC(=O)[C@H](CCCNC(=N)N)NC(=O)[C@H](CO)NC(=O)[C@H](CCCCN)NC(=O)[C@@H]2CCCN2C(=O)[C@H]([C@@H](C)CC)NC(=O)[C@H]([C@@H](C)O)NC(=O)[C@H](CC(=O)O)NC1=O
[1]
  IC50: 0.234 nM
[2]
  IC50: 0.242 nM
[3]
  IC50: 0.309 nM

## CC[C@H](C)[C@@H]1NC(=O)[C@@H](NC(=O)[C@H](CO)NC(=O)[C@@H](N)CCCNC(=N)N)CSSC[C@@H](C(=O)O)NC(=O)[C@H]([C@@H](C)O)NC(=O)CNC(=O)[C@@H]2CSSC[C@@H]3NC(=O)[C@H](CCC(N)=O)NC(=O)[C@H](Cc4ccccc4)NC(=O)[C@H](C)NC(=O)[C@H]([C@@H](C)O)NC(=O)[C@H](CSSC[C@H](NC(=O)[C@H](Cc4ccccc4)NC(=O)[C@H](CO)NC(=O)[C@H](CC(C)C)NC(=O)[C@H](CCCNC(=N)N)NC(=O)[C@H](Cc4ccc(O)cc4)NC(=O)[C@H](CCCCN)NC(=O)[C@H](CCSC)NC(=O)[C@H](CO)NC(=O)[C@H](Cc4cnc[nH]4)NC(=O)[C@H](CCCCN)NC3=O)C(=O)N[C@@H](CCCNC(=N)N)C(=O)N[C@@H](CCCCN)C(=O)N[C@@H]([C@@H](C)O)C(=O)N2)NC(=O)[C@H](CCCNC(=N)N)NC(=O)[C@H](CO)NC(=O)[C@H](CCCCN)NC(=O)[C@@H]2CCCN2C(=O)[C@H]([C@@H](C)CC)NC(=O)[C@H]([C@@H](C)O)NC(=O)[C@H](CCCNC(=N)N)NC1=O
[1]
  IC50: > 3.33 nM
[2]
  IC50: 40.5 nM
[3]
  IC50: 91.7 nM
